In the supplement of paper PMC11061612:

How the values were obtained:
Experiment in all cases: combination Emax (second highest fraction inhibited in the dose matrix, 72 h); higher = more inhibition; extreme values may be limits of the assay
[1] = tested on: CAL-54 (Kidney Carcinoma)
Procedure, shortened: (§1)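 Cell lines in DMEM/F12 or RPMI with 10% FBS were plated in 1536-well plates, held 24 hours at 37°C, 5% CO2, then given two-drug dose matrices for 72 hours (DMSO typically 0.2%). Viability was read by CellTiter-Glo 2.0 luminescence and scaled as inhibition from 0 (vehicle wells) to 1 (blank wells). Combination Emax is the second-highest inhibition in the matrix; Bliss excess is observed combination effect minus expected EA + EB − EA·EB, EA and EB being single-agent effects.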

[2] = tested on: RPMI-6666 (Non-Cancerous)
Procedure, shortened: as §1

[3] = tested on: PCI-30 (Head and Neck Carcinoma)
Procedure, shortened: as §1

[4] = tested on: UMC-11 (Other Solid Carcinomas)
Procedure, shortened: as §1

[5] = tested on: 639-V (Bladder Carcinoma)
Procedure, shortened: as §1

[6] = tested on: SW1271 (Small Cell Lung Carcinoma)
Procedure, shortened: as §1

[7] = tested on: HCC-15 (Squamous Cell Lung Carcinoma)
Procedure, shortened: as §1

[8] = tested on: NCI-H747 (Colorectal Carcinoma)
Procedure, shortened: as §1

[9] = tested on: EN (Endometrial Carcinoma)
Procedure, shortened: as §1

[10] = tested on: NCI-H2795 (Mesothelioma)
Procedure, shortened: as §1

[11] = tested on: NB14 (Neuroblastoma)
Procedure, shortened: as §1

[12] = tested on: SH-4 (Melanoma)
Procedure, shortened: as §1

[13] = tested on: RKO (Colorectal Carcinoma)
Procedure, shortened: as §1

[14] = tested on: COLO-829 (Melanoma)
Procedure, shortened: as §1

[15] = tested on: HARA (Squamous Cell Lung Carcinoma)
Procedure, shortened: as §1

[16] = tested on: NCI-H69 (Small Cell Lung Carcinoma)
Procedure, shortened: as §1

[17] = tested on: SU-DHL-6 (B-Cell Non-Hodgkin's Lymphoma)
Procedure, shortened: as §1

[18] = tested on: 8305C (Thyroid Gland Carcinoma)
Procedure, shortened: as §1

[19] = tested on: NCI-H2461 (Mesothelioma)
Procedure, shortened: as §1

[20] = tested on: CAL-51 (Breast Carcinoma)
Procedure, shortened: as §1

Structure (SMILES) | combination Emax [1] | combination Emax [2] | combination Emax [3] | combination Emax [4] | combination Emax [5] | combination Emax [6] | combination Emax [7] | combination Emax [8] | combination Emax [9] | combination Emax [10] | combination Emax [11] | combination Emax [12] | combination Emax [13] | combination Emax [14] | combination Emax [15] | combination Emax [16] | combination Emax [17] | combination Emax [18] | combination Emax [19] | combination Emax [20]
Cc1c2c(nn1C)CSCc1cc(n(C)n1)CSc1cc(c3ccccc3c1)OCCCc1c(C(=O)O)n(C)c3c-2c(Cl)ccc13 [AZD5991] + C[C@@H](Nc1cc(F)cc(F)c1)c1cc(C(=O)N(C)C)cc2c(=O)cc(N3CCOCC3)oc12 [AZD8186] (first compound max 1 µM, 7x7, partner max 3 µM) | 0.602 | 0.717 | 0.264 | 0.32 | 0.421 | 0.207 | 0.203 | 0.517 | 0.558 | 0.926 | 0.898 | 0.332 | 0.277 | 0.17 | 0.412 | 0.305 | 1 | 0.588 | 0.363 | 0.336
CC1(C)CCC(CN2CCN(c3ccc(C(=O)NS(=O)(=O)c4ccc(NCC5CCOCC5)c([N+](=O)[O-])c4)c(Oc4cnc5[nH]ccc5c4)c3)CC2)=C(c2ccc(Cl)cc2)C1 [Venetoclax] + C[C@@H](Nc1cc(F)cc(F)c1)c1cc(C(=O)N(C)C)cc2c(=O)cc(N3CCOCC3)oc12 [AZD8186] (first compound max 1 µM, 7x7, partner max 3 µM) | 0.533 | 0.988 | 0.19 | 0.143 | 0.321 | 0.151 | 0.173 | 0.344 | 0.422 | 0.441 | 1 | 0.192 | 0.113 | 0.243 | 0.607 | 0.697 | 1 | 0.441 | 0.447 | 0.0234
Cc1c2c(nn1C)CSCc1cc(n(C)n1)CSc1cc(c3ccccc3c1)OCCCc1c(C(=O)O)n(C)c3c-2c(Cl)ccc13 [AZD5991] + C1CN(CCC1(C(=O)N[C@@H](CCO)C2=CC=C(C=C2)Cl)N)C3=NC=NC4=C3C=CN4 [Capivasertib] (first compound max 1 µM, 7x7, partner max 3 µM) | 0.351 | 0.7 | 0.237 | 0.29 | 0.177 | 0.216 | 0.227 | 0.392 | 0.848 | 0.85 | 0.89 | 0.332 | 0.292 | 0.222 | 0.58 | 0.405 | 1 | 0.319 | 0.464 | 0.792
CC1(C)CCC(CN2CCN(c3ccc(C(=O)NS(=O)(=O)c4ccc(NCC5CCOCC5)c([N+](=O)[O-])c4)c(Oc4cnc5[nH]ccc5c4)c3)CC2)=C(c2ccc(Cl)cc2)C1 [Venetoclax] + C=CCn1c(=O)c2cnc(Nc3ccc(N4CCN(C)CC4)cc3)nc2n1-c1cccc(C(C)(C)O)n1 [AZD1775] (first compound max 1 µM, partner max 1 µM) | 0.795 | 0.996 | 0.736 | 0.487 | 0.428 | 0.552 | 0.469 | 0.479 | 0.653 | 0.658 | 1 | 0.573 | 0.88 | 0.235 | 0.899 | 0.425 | 0.941 | 0.639 | 0.731 | 0.851
Cc1c2c(nn1C)CSCc1cc(n(C)n1)CSc1cc(c3ccccc3c1)OCCCc1c(C(=O)O)n(C)c3c-2c(Cl)ccc13 [AZD5991] + Cc1cc2ncnn2cc1Nc1ncc2c(n1)n(C1CCOCC1)c(=O)n2C [AZD7648] (first compound max 1 µM, 7x7, partner max 10 µM) | 0.367 | 0.541 | 0.323 | 0.625 | 0.298 | 0.305 | 0.207 | 0.392 | 0.563 | 0.941 | 0.72 | 0.284 | 0.364 | 0.144 | 0.394 | 0.283 | 1 | 0.432 | 0.422 | 0.365
Cc1c2c(nn1C)CSCc1cc(n(C)n1)CSc1cc(c3ccccc3c1)OCCCc1c(C(=O)O)n(C)c3c-2c(Cl)ccc13 [AZD5991] + C=CCn1c(=O)c2cnc(Nc3ccc(N4CCN(C)CC4)cc3)nc2n1-c1cccc(C(C)(C)O)n1 [AZD1775] (first compound max 1 µM, partner max 1 µM) | 0.702 | 0.93 | 0.317 | 0.784 | 0.448 | 0.582 | 0.55 | 0.598 | 0.812 | 0.881 | 1 | 0.616 | 0.69 | 0.291 | 0.89 | 0.266 | 1 | 0.646 | 0.712 | 0.915
NC1(C(=O)N[C@@H](CCO)c2ccc(Cl)cc2)CCN(c2ncnc3[nH]ccc23)CC1 [Capivasertib] + Cn1cnc2c(F)c(Nc3ccc(Br)cc3Cl)c(C(=O)NOCCO)cc21 [Selumetinib] (first compound max 10 µM, 7x7, partner max 10 µM) | 0.611 | 0.737 | 0.342 | 0.279 | 0.366 | 0.674 | 0.693 | 0.909 | 0.646 | 0.871 | 0.313 | 0.909 | 0.876 | 0.818 | 0.607 | 0.466 | 1 | 0.527 | 0.569 | 0.596
Cn1cnc2c(F)c(Nc3ccc(Br)cc3Cl)c(C(=O)NOCCO)cc21 [Selumetinib] + C[C@@H]1COCCN1C2=NC(=NC(=C2)C3(CC3)[S@](=N)(=O)C)C4=C5C=CNC5=NC=C4 [AZD6738] (first compound max 10 µM, 7x7, partner max 10 µM) | 0.616 | 0.804 | 0.371 | 0.603 | 0.464 | 0.552 | 0.503 | 0.776 | 0.558 | 0.855 | 0.97 | 0.91 | 0.945 | 0.597 | 0.835 | 0.261 | 0.405 | 0.534 | 0.571 | 0.964
CC1(C)CCC(CN2CCN(c3ccc(C(=O)NS(=O)(=O)c4ccc(NCC5CCOCC5)c([N+](=O)[O-])c4)c(Oc4cnc5[nH]ccc5c4)c3)CC2)=C(c2ccc(Cl)cc2)C1 [Venetoclax] + CCN(CCO)CCCOc1ccc2c(Nc3cc(CC(=O)Nc4cccc(F)c4)[nH]n3)ncnc2c1 [AZD2811] (first compound max 1 µM, 7x7, partner max 1 µM) | 0.251 | 0.991 | 0.229 | 0.91 | 0.248 | 0.174 | 0.781 | 0.246 | 0.399 | 0.422 | 1 | 0.241 | 0.27 | 0.127 | 0.714 | 0.824 | 0.877 | 0.354 | 0.422 | 0.349
CN(CCO)CC[C@H](CSc1ccccc1)Nc1ccc(S(=O)(=O)NC(=O)c2ccc(N3CCC([C@@H](O)c4ccccc4-c4ccc(Cl)cc4)CC3)cc2)cc1S(=O)(=O)C(F)(F)F [AZD4320] + Cn1cnc2c(F)c(Nc3ccc(Br)cc3Cl)c(C(=O)NOCCO)cc21 [Selumetinib] (first compound max 1 µM, 7x7, partner max 3 µM) | 0.311 | 0.992 | 0.224 | 0.467 | 0.978 | 0.534 | 1 | 0.793 | 0.29 | 0.827 | 1 | 0.955 | 0.754 | 0.601 | 0.219 | 0.885 | 0.974 | 0.71 | 0.328 | 0.487
COc1cc2c(cc1OCCCCCOc1cc3c(cc1OC)C(=O)N1C=C(C)C[C@H]1C=N3)N=C[C@@H]1CC(C)=CN1C2=O [SG3199] + O=C(c1cc(Cc2n[nH]c(=O)c3ccccc23)ccc1F)N1CCN(C(=O)C2CC2)CC1 [Olaparib] (first compound max 0.001 µM, 7x7, partner max 10 µM) | 0.121 | 0.501 | 0.105 | 0.168 | 0.201 | 0.18 | 0.145 | 0.0668 | 0.148 | 0.269 | 0.42 | 0.181 | 0.114 | 0.129 | 0.174 | 0.242 | 0.171 | 0.141 | 0.11 | 0.202
CC(=O)c1c(C)c2cnc(Nc3ccc(N4CCNCC4)cn3)nc2n(C2CCCC2)c1=O [Palbociclib] + CC1(C)CCC(CN2CCN(c3ccc(C(=O)NS(=O)(=O)c4ccc(NCC5CCOCC5)c([N+](=O)[O-])c4)c(Oc4cnc5[nH]ccc5c4)c3)CC2)=C(c2ccc(Cl)cc2)C1 [Venetoclax] (first compound max 10 µM, 7x7, partner max 1 µM) | 0.527 | 0.797 | 0.223 | 0.507 | 0.147 | 0.214 | 0.177 | 0.343 | 0.146 | 0.351 | 0.734 | 0.271 | 0.315 | 0.298 | 0.496 | 0.764 | 0.976 | 0.431 | 0.308 | 0.219
